Results reported in ChEMBL document CHEMBL1201862, “PubChem BioAssay data set” (2004).
Activity calls are given as the source filed them.

Key:
[1] = biological target: T1, Acyl-homoserine lactone acylase PvdQ (Pseudomonas aeruginosa (strain LESB58), UniProt Q9I194); assay: P. aeruginosa PvdQ acylase inhibitors, dose response, biochemical, fluorescence, plate reader and imaging, cherry-picks (AID 493231)
T1 sequence (Q9I194 whole entry): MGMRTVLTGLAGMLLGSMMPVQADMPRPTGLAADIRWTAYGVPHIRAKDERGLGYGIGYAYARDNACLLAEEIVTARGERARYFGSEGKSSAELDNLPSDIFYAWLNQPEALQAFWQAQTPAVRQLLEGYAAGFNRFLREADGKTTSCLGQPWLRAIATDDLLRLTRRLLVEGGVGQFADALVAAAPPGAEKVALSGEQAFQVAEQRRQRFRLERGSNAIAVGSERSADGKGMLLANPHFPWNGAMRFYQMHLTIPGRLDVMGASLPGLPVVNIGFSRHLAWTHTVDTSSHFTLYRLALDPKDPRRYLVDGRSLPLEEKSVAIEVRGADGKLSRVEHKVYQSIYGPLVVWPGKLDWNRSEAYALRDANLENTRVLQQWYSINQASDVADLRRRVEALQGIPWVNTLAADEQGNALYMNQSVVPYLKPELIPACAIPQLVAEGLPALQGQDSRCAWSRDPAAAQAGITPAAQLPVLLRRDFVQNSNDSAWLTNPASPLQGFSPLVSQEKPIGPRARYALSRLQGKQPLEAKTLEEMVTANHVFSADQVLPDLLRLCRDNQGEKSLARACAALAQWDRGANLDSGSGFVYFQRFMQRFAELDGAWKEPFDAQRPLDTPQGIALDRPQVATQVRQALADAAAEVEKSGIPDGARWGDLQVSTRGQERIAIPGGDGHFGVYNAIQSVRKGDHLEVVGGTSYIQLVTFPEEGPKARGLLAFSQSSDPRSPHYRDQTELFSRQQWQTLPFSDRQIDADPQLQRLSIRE

[2] = biological target: Photoreceptor-specific nuclear receptor (Homo sapiens, UniProt Q9Y5X4); type: functional;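 further: potency for compounds that break the NR2E3 corepressor complex and count as activators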
[3] = biological target: Peroxisome proliferator-activated receptor gamma/Nuclear receptor corepressor 2 (Homo sapiens, UniProt P37231+Q9Y618); type: functional
Ephrin type-A receptor 4 = Ephrin type-A receptor 4 (Mus musculus, UniProt Q03137); assay: inhibitors of EphA4 binding to KYL peptide, primary screen, biochemical, colorimetric, mouse EphA4 (AID 689); type: functional
[4] = biological target: Eukaryotic translation initiation factor 4E (Mus musculus, UniProt P63073); assay: eIF4E–eIF4G protein interaction inhibitors, dose response, biochemical, TR-FRET (AID 855); type: functional;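 further: potency for disrupting eIF4E binding to eIF4GI seen as loss of FRET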
[5] = cytotoxicity in HEK-293T cells, dose response, cytotoxicity control for BCR NF-kB inhibitor project, luminescence, B-cell screen hits (AID 489021); type: functional, cell-based;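 further: HEK-293T cells carrying an NF-kB luciferase reporter; cells exposed to compound for about 14 hours before viability readout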
[6] = biological target: T2, Replicative DNA helicase DnaB (Mycobacterium tuberculosis, UniProt P9WMR3); assay: DnaB intein splicing inhibitors, dose response, biochemical, cell-free fluorescence (AID 449749); type: functional
T2 sequence (P9WMR3 whole entry): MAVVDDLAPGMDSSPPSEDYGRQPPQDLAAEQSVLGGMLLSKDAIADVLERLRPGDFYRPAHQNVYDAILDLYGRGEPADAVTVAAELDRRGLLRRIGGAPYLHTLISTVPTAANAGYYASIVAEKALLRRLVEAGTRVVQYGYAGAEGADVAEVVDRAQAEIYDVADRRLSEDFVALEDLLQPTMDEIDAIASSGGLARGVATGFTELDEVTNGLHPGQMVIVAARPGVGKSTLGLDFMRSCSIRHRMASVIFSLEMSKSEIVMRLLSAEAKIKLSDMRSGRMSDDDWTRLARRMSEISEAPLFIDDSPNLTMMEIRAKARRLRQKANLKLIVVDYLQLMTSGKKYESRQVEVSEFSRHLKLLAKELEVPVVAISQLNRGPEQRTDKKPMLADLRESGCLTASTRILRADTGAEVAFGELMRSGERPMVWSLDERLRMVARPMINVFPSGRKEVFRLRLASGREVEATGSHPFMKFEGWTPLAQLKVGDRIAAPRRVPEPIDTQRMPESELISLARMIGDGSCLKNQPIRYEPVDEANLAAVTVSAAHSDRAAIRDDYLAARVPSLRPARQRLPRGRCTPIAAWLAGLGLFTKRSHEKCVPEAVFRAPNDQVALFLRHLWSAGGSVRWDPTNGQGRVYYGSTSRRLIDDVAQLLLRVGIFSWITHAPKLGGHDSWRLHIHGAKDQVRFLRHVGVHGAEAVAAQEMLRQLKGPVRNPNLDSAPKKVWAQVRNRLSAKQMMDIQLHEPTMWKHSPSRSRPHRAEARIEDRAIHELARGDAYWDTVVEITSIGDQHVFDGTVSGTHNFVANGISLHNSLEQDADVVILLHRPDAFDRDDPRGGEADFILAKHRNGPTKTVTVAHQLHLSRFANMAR

Protein RecA = biological target: T3, Protein RecA (Mycobacterium tuberculosis, UniProt P9WHJ3); assay: Fluorescence Cell-Free Homogeneous Dose Retest to Identify Inhibitors of RecA-Intein Splicing Activity. [Related pubchem assays (depositor defined):AID2097, AID2223, AID489010, AID492950]; type: functional
T3 sequence (P9WHJ3 whole entry): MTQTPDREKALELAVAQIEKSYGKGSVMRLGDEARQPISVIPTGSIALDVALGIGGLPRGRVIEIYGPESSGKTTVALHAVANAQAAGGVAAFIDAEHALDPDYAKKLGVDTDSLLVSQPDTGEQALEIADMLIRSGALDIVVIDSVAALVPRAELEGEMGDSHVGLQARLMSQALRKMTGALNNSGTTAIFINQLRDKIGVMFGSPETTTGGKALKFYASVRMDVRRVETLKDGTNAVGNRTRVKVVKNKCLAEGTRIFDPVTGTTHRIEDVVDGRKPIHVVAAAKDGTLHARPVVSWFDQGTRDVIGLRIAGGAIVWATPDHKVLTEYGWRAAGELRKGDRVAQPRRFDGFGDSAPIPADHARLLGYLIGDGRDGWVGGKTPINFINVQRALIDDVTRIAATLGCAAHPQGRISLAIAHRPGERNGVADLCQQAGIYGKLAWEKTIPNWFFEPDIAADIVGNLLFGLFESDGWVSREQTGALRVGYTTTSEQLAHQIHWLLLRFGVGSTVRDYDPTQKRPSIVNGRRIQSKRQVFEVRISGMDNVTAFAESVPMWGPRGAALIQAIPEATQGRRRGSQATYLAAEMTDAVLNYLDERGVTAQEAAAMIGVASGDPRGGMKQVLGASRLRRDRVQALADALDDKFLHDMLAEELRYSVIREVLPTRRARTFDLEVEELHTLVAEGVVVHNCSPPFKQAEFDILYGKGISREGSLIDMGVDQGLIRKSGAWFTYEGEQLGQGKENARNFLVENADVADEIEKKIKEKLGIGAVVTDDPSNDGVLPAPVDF

[7] = biological target: T4, Carboxy-terminal domain RNA polymerase II polypeptide A small phosphatase 1 (Homo sapiens, UniProt Q9GZU7); assay: inhibitors of CTDSP1, concentration-response testing, biochemical assay, absorbance-based, actives from ultra-high-throughput screening (AID 540297); type: functional
T4 sequence (Q9GZU7 whole entry): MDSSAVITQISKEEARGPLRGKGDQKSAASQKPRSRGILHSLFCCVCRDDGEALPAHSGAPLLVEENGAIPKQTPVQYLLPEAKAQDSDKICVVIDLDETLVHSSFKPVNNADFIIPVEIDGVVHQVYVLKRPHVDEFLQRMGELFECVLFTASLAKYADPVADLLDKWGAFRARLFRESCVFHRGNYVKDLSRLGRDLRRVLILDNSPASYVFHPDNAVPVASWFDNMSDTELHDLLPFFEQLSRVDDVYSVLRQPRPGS

[8] = biological target: T5, Heat shock factor protein 1 (Mus musculus, UniProt P38532); assay: inhibition of MG132-induced HSE-luciferase signal, confirmation, cell-based, NIH3T3, luminescence, dose retest (AID 2382); type: functional;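 further: NIH3T3 fibroblasts with HSF1-driven luciferase reporter stressed by proteasome inhibitor MG132; luminescence from HSF1-driven luciferase expression after 8 hours of MG132 stress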
T5 sequence (P38532 whole entry): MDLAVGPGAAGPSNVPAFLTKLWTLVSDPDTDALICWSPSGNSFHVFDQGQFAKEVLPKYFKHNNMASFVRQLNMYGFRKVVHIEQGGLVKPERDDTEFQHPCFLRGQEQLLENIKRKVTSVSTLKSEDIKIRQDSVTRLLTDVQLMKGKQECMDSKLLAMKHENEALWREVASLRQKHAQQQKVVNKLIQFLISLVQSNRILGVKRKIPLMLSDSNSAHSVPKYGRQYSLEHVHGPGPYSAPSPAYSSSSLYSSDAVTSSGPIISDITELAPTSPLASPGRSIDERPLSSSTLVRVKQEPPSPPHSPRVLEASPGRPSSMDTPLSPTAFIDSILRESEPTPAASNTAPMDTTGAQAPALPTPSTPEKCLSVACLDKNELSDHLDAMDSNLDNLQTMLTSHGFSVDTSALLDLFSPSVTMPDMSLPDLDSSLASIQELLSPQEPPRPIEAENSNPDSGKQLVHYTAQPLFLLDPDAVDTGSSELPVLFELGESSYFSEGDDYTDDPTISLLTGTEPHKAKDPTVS

CHO-K1 = assay: (§1) Counterscreen for antagonists of the orexin 1 receptor (OX1R; HCRTR1): Homogeneous time resolved fluorescence (HTRF)-based cell-based dose response assay to identify antagonists of the parental CHO-K1 cell line. [Related pubchem assays (depositor defined):AID434989, AID435008, AID463079, AID485270, AID492963, AID492964, AID492965, AID493232, AID504699, AID504701]; type: functional; details: Cricetulus griseus
[9] = as §1, with “Fluorescence-based” for “Homogeneous time resolved fluorescence (HTRF)-based”, “cell-based high throughput” for “cell-based”, “CHO” for “CHO-K1”; type: functional
[10] = biological target: T6, Orexin/Hypocretin receptor type 1 (Homo sapiens, UniProt O43613); assay: Homogeneous Time Resolved Fluorescence (HTRF)-based cell-based high throughput dose response assay for antagonists of the orexin 1 receptor (OX1R; HCRTR1). [Related pubchem assays (depositor defined):AID434989, AID435008, AID463079, AID485270, AID492963, AID492964, AID492965, AID493232, AID504717, AID504718]; type: functional
T6 sequence (O43613 whole entry): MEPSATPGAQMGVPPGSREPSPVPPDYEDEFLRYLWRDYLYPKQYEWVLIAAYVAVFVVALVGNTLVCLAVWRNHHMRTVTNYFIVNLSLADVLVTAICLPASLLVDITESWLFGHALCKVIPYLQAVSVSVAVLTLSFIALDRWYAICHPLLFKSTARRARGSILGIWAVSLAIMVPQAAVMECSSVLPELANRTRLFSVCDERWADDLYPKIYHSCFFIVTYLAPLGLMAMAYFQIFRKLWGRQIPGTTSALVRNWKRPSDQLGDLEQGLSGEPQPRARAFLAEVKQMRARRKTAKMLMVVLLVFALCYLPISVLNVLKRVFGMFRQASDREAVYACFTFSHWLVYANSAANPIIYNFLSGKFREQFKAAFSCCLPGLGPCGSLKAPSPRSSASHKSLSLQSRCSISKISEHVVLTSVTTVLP

[11] = biological target: T6, Orexin/Hypocretin receptor type 1; assay: Fluorescence-based cell-based high throughput dose response assay for antagonists of the orexin 1 receptor (OX1R; HCRTR1). [Related pubchem assays (depositor defined):AID434989, AID435008, AID463079, AID485270, AID492963, AID492964, AID492965, AID493232, AID504717, AID504718]; type: functional
Hexokinase = biological target: T7, Hexokinase (Trypanosoma brucei, UniProt Q38C41); assay: Confirmation assay for inhibitors of Trypanosoma brucei hexokinase 1-Analogue-first series. [Related pubchem assays (depositor defined):AID1430, AID1632, AID2516, AID2560, AID2579, AID2600, AID449725, AID492951]; type: functional
T7 sequence (Q38C41 whole entry): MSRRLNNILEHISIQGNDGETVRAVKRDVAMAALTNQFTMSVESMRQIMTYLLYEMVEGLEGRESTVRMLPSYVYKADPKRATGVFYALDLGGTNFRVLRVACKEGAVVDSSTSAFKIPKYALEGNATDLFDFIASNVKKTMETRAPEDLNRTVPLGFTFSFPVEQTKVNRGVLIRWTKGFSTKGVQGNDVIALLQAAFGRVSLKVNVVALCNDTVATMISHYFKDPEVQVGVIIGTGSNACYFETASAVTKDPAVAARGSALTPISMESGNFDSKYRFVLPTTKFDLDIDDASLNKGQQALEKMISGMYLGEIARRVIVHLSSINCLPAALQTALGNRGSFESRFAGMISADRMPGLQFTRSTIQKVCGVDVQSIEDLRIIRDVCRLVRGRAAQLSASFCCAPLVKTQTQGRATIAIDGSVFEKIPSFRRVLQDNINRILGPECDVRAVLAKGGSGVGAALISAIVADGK

Chain of Eukaryotic translation initiation factor 4E (P63073 whole entry): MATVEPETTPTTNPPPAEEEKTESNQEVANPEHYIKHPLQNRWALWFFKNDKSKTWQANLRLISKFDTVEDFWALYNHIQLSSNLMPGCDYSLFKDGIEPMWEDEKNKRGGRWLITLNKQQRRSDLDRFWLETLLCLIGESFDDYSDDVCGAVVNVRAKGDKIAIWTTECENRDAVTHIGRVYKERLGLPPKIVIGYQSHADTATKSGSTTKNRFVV
Chain of Peroxisome proliferator-activated receptor gamma/Nuclear receptor corepressor 2 (P37231 whole entry): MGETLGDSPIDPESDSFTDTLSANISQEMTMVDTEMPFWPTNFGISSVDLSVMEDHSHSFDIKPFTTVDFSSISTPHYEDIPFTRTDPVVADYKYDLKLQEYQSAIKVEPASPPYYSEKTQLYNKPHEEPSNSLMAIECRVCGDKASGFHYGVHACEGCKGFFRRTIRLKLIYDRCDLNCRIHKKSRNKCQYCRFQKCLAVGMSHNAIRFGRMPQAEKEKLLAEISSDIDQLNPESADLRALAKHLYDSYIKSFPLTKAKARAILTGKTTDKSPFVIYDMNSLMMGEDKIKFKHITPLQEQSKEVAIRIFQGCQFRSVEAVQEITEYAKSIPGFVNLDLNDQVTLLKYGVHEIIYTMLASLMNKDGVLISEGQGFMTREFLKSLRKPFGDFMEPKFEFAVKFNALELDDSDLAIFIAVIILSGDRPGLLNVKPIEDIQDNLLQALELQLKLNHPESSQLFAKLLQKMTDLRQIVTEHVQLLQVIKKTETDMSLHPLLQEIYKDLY
Chain of Peroxisome proliferator-activated receptor gamma/Nuclear receptor corepressor 2 (Q9Y618 whole entry): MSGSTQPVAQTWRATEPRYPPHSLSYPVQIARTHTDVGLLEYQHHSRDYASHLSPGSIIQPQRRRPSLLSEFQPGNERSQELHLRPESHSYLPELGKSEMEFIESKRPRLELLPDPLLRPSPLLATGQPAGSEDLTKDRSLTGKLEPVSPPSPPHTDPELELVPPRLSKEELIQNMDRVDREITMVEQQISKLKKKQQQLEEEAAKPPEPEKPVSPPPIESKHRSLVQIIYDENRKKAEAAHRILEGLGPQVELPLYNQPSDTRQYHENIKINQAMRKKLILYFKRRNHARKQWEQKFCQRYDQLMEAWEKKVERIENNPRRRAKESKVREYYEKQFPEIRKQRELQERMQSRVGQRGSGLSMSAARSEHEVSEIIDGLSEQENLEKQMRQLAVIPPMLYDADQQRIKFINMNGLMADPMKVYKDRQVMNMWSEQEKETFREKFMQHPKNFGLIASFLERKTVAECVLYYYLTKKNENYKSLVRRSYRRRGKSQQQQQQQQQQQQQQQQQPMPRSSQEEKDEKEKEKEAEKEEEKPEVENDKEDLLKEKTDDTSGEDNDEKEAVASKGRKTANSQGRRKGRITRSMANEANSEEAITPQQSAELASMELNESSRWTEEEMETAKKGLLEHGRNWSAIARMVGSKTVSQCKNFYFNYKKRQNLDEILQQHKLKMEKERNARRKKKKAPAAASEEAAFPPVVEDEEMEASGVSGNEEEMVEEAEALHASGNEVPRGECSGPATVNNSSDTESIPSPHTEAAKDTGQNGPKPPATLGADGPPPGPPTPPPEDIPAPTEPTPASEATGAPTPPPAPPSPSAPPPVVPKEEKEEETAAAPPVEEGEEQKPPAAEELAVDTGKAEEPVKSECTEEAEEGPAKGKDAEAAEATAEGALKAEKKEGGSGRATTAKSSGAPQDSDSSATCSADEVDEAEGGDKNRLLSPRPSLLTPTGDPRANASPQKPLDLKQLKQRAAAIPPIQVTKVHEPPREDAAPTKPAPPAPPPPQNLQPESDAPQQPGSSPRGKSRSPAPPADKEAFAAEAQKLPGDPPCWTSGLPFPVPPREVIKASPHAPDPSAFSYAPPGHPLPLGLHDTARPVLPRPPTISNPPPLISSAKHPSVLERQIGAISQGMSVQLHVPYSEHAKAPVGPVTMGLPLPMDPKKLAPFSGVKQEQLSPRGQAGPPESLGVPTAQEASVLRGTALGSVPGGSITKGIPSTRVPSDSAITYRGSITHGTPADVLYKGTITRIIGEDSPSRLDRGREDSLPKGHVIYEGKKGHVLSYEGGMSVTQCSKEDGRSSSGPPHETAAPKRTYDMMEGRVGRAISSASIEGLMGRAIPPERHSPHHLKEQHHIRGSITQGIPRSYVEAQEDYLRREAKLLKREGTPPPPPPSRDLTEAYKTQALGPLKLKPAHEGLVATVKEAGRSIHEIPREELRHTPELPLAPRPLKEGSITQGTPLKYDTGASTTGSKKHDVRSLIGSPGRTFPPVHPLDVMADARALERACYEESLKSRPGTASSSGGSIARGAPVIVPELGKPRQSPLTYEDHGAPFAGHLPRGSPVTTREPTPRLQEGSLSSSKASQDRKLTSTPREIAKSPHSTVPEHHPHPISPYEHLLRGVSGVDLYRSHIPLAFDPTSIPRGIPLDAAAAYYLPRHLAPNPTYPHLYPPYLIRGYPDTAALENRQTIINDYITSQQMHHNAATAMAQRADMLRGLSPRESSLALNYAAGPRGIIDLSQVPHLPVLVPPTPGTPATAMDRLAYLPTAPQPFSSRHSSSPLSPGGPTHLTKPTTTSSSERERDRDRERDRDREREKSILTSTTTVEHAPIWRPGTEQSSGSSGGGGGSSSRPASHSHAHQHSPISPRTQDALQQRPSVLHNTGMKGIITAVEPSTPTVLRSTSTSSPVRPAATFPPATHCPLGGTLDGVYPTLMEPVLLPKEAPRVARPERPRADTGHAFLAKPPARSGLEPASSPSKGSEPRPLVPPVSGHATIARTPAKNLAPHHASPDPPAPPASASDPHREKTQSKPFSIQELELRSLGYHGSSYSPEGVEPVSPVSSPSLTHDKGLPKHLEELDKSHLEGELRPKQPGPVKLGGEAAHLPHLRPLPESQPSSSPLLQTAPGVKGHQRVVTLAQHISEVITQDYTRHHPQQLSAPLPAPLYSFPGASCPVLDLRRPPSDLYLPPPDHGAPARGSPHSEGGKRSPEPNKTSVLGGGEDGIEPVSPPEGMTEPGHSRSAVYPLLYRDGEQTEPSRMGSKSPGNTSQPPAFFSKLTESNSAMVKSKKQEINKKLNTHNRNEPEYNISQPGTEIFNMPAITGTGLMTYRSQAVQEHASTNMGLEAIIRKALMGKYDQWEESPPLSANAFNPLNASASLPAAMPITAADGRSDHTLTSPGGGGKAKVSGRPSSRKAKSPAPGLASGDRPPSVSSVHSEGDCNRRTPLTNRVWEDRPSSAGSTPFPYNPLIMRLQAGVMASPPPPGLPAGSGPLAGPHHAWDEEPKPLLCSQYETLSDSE
Chain of Photoreceptor-specific nuclear receptor (Q9Y5X4 whole entry): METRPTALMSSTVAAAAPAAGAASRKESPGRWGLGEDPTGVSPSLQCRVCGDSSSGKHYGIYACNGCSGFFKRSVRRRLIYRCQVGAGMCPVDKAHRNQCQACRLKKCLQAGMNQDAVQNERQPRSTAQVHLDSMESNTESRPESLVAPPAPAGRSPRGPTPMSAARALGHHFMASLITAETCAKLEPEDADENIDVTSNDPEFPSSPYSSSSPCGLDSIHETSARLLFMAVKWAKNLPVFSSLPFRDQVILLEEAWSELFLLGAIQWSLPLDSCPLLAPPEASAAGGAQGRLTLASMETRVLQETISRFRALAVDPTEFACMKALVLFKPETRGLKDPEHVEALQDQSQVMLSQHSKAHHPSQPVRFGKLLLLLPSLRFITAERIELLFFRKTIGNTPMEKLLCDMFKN
Chain of Ephrin type-A receptor 4 (Q03137 whole entry): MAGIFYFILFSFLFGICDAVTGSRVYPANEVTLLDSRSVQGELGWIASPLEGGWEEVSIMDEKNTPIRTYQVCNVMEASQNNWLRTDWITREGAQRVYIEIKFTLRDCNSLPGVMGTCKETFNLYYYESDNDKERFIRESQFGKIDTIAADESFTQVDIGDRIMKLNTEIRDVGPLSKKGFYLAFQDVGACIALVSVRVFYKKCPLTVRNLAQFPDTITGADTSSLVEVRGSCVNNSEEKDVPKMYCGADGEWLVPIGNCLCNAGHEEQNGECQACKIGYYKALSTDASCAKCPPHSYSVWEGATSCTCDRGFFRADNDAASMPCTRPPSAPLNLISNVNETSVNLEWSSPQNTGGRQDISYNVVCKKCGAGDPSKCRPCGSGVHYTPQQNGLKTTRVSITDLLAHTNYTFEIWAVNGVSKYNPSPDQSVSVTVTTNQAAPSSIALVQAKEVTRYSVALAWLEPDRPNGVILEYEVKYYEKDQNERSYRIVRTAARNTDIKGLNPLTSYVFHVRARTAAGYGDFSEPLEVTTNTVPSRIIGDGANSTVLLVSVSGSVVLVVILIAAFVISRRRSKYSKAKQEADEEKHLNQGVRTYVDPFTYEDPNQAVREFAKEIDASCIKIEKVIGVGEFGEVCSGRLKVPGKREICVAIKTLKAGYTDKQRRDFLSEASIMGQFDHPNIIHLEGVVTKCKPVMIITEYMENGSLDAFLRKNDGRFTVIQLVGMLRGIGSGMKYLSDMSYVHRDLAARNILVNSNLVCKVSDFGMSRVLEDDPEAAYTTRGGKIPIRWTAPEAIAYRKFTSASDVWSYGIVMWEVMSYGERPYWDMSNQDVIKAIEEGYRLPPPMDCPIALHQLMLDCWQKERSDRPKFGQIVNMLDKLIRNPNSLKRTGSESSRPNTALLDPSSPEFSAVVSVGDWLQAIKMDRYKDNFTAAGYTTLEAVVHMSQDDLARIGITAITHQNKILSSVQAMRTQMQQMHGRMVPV

In the case of `CCOC(=O)CCCn1ncn2c(cc3occc32)c1=O`, the AC50 [1] is reported as 12 µM (active).
For `COC(=O)Sc1nnc(-c2ccc(Br)cc2)o1`, the IC50 [2] was > 39.8 µM (not active), the IC50 [3] was 3.53 µM (active) and the IC50 (Ephrin type-A receptor 4) was 13 µM (active). The IC50 [4] was 30.7 µM (active).
In the case of `COc1cc(-c2[nH]nc3c2C(c2ccco2)C(C#N)=C(N)O3)cc(OC)c1OC` (stereo not given), the IC50 [5] is reported as > 80 µM (inactive), the AC50 [6] is reported as 6.62 µM (active) and the EC50 (Protein RecA) is reported as 531 nM (active).
In the case of `Cc1ccc(-n2nc(-c3ccco3)cc2C(=O)O)c(C)c1`, the IC50 [4] is reported as 50 µM (inactive) and the IC50 [7] is reported as 4.94 µM (active).
For `O=S(=O)(Nc1c(O)ccc2ccccc12)c1cccc2ccccc12`, the EC50 [8] was 15.7 µM (active), the IC50 (CHO-K1) was 56.9 µM (inactive) and the IC50 [9] was 39.2 µM (inactive). For the same compound, the IC50 [10] was 2.85 µM (active), the IC50 [11] was 13.1 µM (inactive) and the AC50 [6] was 4.4 µM (active). For the same compound, the EC50 (Protein RecA) was 1770 nM (active).
For `CC(C)(C)c1ccc(C(=O)Nc2c(C(=O)O)ccc(Cl)c2Cl)cc1`, the IC50 (Hexokinase) was > 25 µM (inactive).
For `CC(C)Cc1ccc(C(=O)Nc2cc(Cl)ccc2C(=O)O)cc1`, the IC50 (Hexokinase) was 7.25 µM (active).
For `O=C(Nc1cc(Cl)ccc1C(=O)O)c1ccoc1`, the IC50 (Hexokinase) was > 25 µM (inactive).
With `O=C1NCC(c2ccccc2)C1C(=O)N/N=C\c1ccc(-c2cccc(Cl)c2Cl)o1` (stereo not given) the IC50 (CHO-K1) was > 66.2 µM (inactive), the IC50 [9] was 24.7 µM (inactive) and the IC50 [10] was 0.648 µM (active). For the same compound, the IC50 [11] was 2.32 µM (active).
For `COc1ccccc1/C=C1\SC(=S)N(CCC(=O)Nc2cccc(O)c2)C1=O`, the IC50 [5] was 60.6 µM (inactive).
